# From patent US20060148760A1, “Method for the sysnthesis of compounds of formula I and their uses thereof” (TransTech Pharma, priority 2000, published 2006)
# Counter-ions that a name gives are not always drawn.
# Tested on: S-100b/RAGE interaction in Glioma cells
# Assay: Functional assay: inhibition of NF-κB in Glioma cells (S-100b/RAGE interaction)
# Format: cell-based
# Settings: Glioma cell
structure (smiles),measurement,value
"CCCCOc1cc(C(=O)OCCN(CC)CC)ccc1NC(=O)[C@H](N)Cc1ccc2ccccc2c1 [Example 1, (R)-3-(2-Naphthyl)-2-aminopropionic Acid 4-Diethylaminoethoxycarbonyl-2-butoxyaniline Amide Dihydrochloride]",IC50,3.3 µM
